Laboratory results as given in patent US20100093702A1, “METHYLENE AMINES OF THIENO[2,3-d]PYRIMIDINE AND THEIR USE AS ADENOSINE A2a RECEPTOR ANTAGONISTS” (priority 2008, published 2010).
Structures can show the parent of a compound that is named as a salt.

Columns and labels:
[1] = molecular target: T1, human adenosine A2a receptor (Homo sapiens, UniProt P29274); assay: Adenosine A2a Receptor Functional Assay (A2AGAL2); format: cell-based; conditions: CHO-K1 cells, cAMP inducible beta-galactosidase reporter, 15 nM NECA agonist challenge
T1 construct: expressed in transfected cells; host or cells: CHO-K1
T1 sequence (P29274 whole entry): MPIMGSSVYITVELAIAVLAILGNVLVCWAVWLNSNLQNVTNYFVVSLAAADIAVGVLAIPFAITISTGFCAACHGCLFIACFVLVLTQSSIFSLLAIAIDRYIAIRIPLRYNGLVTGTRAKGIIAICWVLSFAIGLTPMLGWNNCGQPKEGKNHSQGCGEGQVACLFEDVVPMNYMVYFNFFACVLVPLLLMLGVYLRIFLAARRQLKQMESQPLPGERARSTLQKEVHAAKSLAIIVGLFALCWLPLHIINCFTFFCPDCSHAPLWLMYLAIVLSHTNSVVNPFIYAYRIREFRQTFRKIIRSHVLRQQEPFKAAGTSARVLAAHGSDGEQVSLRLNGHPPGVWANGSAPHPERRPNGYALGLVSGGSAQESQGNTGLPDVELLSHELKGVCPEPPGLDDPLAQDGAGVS
Summary of the method: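 Antagonist mode in CHO-K1 cells expressing human A2a with a cAMP-inducible β-galactosidase reporter (10K cells/well, cultured 2 days). 11-point compound curves preincubated ~15 min at room temperature in Ham's F-12/0.1% BSA, then 15 nM NECA challenge, 5.5–6 h at 37 °C. Colorimetric β-gal read at 405 nm; IC/EC50 fitted.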

[2] = molecular target: T2, human adenosine A1 receptor (Homo sapiens, UniProt P30542); assay: Adenosine A1 Receptor Functional Assay (A1GAL2); format: cell-based; conditions: CHO-K1 cells, cAMP inducible beta-galactosidase reporter, 4 nM r-PIA/1 uM Forskolin challenge
T2 construct: expressed in transfected cells; host or cells: CHO-K1
T2 sequence (P30542 1-326): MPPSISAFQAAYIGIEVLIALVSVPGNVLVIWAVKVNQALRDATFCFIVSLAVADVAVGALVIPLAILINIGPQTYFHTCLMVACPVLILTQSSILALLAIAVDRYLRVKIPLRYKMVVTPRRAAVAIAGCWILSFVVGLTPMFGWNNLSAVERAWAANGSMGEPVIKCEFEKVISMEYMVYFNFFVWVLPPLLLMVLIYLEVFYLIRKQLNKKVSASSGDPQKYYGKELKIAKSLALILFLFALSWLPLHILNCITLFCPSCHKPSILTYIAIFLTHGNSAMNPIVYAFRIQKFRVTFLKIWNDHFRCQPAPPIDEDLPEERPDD
Summary of the method: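 CHO-K1 cells expressing the receptor with a cAMP-inducible β-galactosidase reporter were preincubated with compound (11-point curves) about 15 min at room temperature, then challenged with r-PIA (4 nM)/forskolin (1 µM) for 5.5–6 h at 37 °C. Lysates were read colorimetrically at 405 nm, and IC/EC50 was obtained by curve fitting.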

[3] = molecular target: T3, human A2a adenosine receptor (Homo sapiens, UniProt P29274); assay: Ligand Binding Assay for Adenosine A2a Receptor (A2A-B); conditions: HEK293 plasma membrane, radioligand [3H]CGS21680
T3 construct: purchased PerkinElmer RB-HA2a; host or cells: HEK293
T3 sequence (P29274 whole entry): as the sequence (P29274 whole entry) above
Description: Ligand Binding Assay for Adenosine A2a Receptor
Ligand binding assay of adenosine A2a receptor was performed using plasma membrane of HEK293 cells containing human A2a adenosine receptor (PerkinElmer, RB-HA2a) and radioligand [^3H]CGS21680 (PerkinElmer, NET 1021). Assay was set up in 96-well polypropylene plate in total volume of 200 μL by sequentially adding 20 μL 1:20 diluted membrane, 130 μL assay buffer (50 mM Tris.HCl, pH7.4 10 mM MgCl2, 1 mM EDTA) containing [^3H] CGS21680, 50 μL diluted compound (4×) or vehicle control in assay buffer. Nonspecific binding was determined by […] NECA. Reaction was carried out at room temperature for 2 hours before filtering through 96-well GF/C filter plate pre-soaked in 50 mM Tris.HCl, pH7.4 containing 0.3% polyethylenimine. Plates were then washed 5 times with cold 50 mM Tris.HCl, pH7.4, dried and sealed at the bottom. Microscintillation fluid 30 μL was added to each well and the top sealed. Plates were counted on Packard Topcount for [^3H]. Data was analyzed in Microsoft Excel and GraphPad Prism programs. (Varani, K.; Gessi, S.; Dalpiaz, A.; Borea, P. A. British Journal of Pharmacology, 1996, 117, 1693)

| Compound | Ki [1] [µM] | Ki [2] [µM] | Ki [3] [µM] |
| --- | --- | --- | --- |
| COc1cccc(-c2nc(N)c3cc(CN4CCSCC4)sc3n2)c1 [Example 85, 2-(3-Methoxy-phenyl)-6-thiomorpholin-4-ylmethyl-thieno[2,3-d]pyrimidin-4-ylamine] | 0.169 | 2.96 | 0.659 |
| COc1cccc(-c2nc(N)c3cc(CN4CCCC(F)(F)C4)sc3n2)c1 [Example 86, 6-(3,3-Difluoro-piperidin-1-ylmethyl)-2-(3-methoxy-phenyl)-thieno[2,3-d]pyrimidin-4-ylamine] | 0.0975 | 1.81 | 0.242 |
| N#Cc1ccc(-c2nc(N)c3cc(CN4CC=CC4)sc3n2)cc1 [Example 88, 4-[4-Amino-6-(2,5-dihydro-pyrrol-1-ylmethyl)-thieno[2,3-d]pyrimidin-2-yl]-benzonitrile] | 0.0789 | 2.35 | 0.076 |
| Nc1nc(-c2ccc(Cl)o2)nc2sc(CN3CCC(F)CC3)cc12 [Example 89, 2-(5-Chloro-furan-2-yl)-6-(4-fluoro-piperidin-1-ylmethyl)-thieno[2,3-d]pyrimidin-4-ylamine hydrochloride] | 0.0359 | 1.08 | 0.0019 |
| Nc1nc(-c2ccc(Cl)o2)nc2sc(CN3CCCC3)cc12 [Example 90, 2-(5-Chloro-furan-2-yl)-6-pyrrolidin-1-ylmethyl-thieno[2,3-d]pyrimidin-4-ylamine hydrochloride] | 0.0223 | 0.712 | 0.0037 |
| Nc1nc(-c2ccco2)nc2sc(CNC34CC5CC(CC(C5)C3)C4)cc12 [Example 91, 6-(Adamantan-1-ylaminomethyl)-2-furan-2-yl-thieno[2,3-d]pyrimidin-4-ylamine] | 0.121 | 1.03 | 0.015 |
| Nc1nc(-c2ccco2)nc2sc(CN3CCC(F)CC3)cc12 [Example 92, 6-(4-Fluoro-piperidin-1-ylmethyl)-2-furan-2-yl-thieno[2,3-d]pyrimidin-4-ylamine Hydrochloride] | 0.0189 | 0.741 | 0.012 |
| Nc1nc(-c2ccc(Cl)o2)nc2sc(CN3CCCCCC3)cc12 [Example 93, 6-Azepan-1-ylmethyl-2-(5-chloro-furan-2-yl)-thieno[2,3-d]pyrimidin-4-ylamine] | 0.0332 | 1.42 | 0.0018 |
| Nc1nc(-c2ccc(Cl)o2)nc2sc(CN3CC=CCC3)cc12 [Example 95, 2-(5-Chloro-furan-2-yl)-6-(3,6-dihydro-2H-pyridin-1-ylmethyl)-thieno[2,3-d]pyrimidin-4-ylamine] | 0.0107 | 0.188 | 0.0034 |
| Nc1nc(C2CC2)nc2sc(CN3CC=CCC3)cc12 [Example 96, 2-Cyclopropyl-6-(3,6-dihydro-2H-pyridin-1-ylmethyl)-thieno[2,3-d]pyrimidin-4-ylamine] | 0.325 | 3.02 | 1.62 |
| Nc1nc(-c2ccc(Cl)o2)nc2sc(CN3CC=CC3)cc12 [Example 97, 2-(5-Chloro-furan-2-yl)-6-(2,5-dihydro-pyrrol-1-ylmethyl)-thieno[2,3-d]pyrimidin-4-ylamine] | 0.0102 | 0.783 | 0.00054 |
| Nc1nc(-c2ccco2)nc2sc(CN3CC=CCC3)cc12 [Example 98, 6-(3,6-Dihydro-2H-pyridin-1-ylmethyl)-2-furan-2-yl-thieno[2,3-d]pyrimidin-4-ylamine] | 0.00885 | 0.158 | 0.0203 |
| Nc1nc(-c2ccnc(Cl)c2)nc2sc(CN3CCOCC3)cc12 [Example 105, 2-(2-Chloro-pyridin-4-yl)-6-morpholin-4-ylmethyl-thieno[2,3-d]pyrimidin-4-ylamine] | 0.123 | 0.876 | 0.934 |
| Nc1nc(-c2ccc(C(F)F)o2)nc2sc(CN3CCOCC3)cc12 [Example 107, 2-(5-Difluoromethyl-furan-2-yl)-6-morpholin-4-ylmethyl-thieno[2,3-d]pyrimidin-4-ylamine] | 0.0305 | 2.7 | 0.0661 |
